Experimental findings from US20230271964A1, “5-AMINO-8-(4-PYRIDYL)-[1,2,4]TRIAZOLO[4,3-C]PYRIMIDIN-3-ONE COMPOUNDS FOR USE AGAINST CANCER” (ASTRAZENECA AB, priority 2020, published 2023) are described below.

The IC50 is the concentration that gives 50% inhibition.

Assay [1] deals with human adenosine A2A receptor (Homo sapiens (Human), UniProt P29274). Kind of assay: Adenosine receptor inhibition binding assay, [3H]ZM241385, HEK293 A2A receptor membranes. The conditions noted are these: 1 nM [3H]ZM241385, HEK293-hA2A membranes, 25° C., 1 h, Ki from IC50 by Cheng-Prusoff. The method in brief:
(§1)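 Membranes from BacMam-transduced HEK293 cells (0.2 µg A2A; 1.4 µg A1) incubated 1 h at 25 °C with 1 nM radioligand; A2A in 50 mM Tris-HCl pH 7.4, A1 buffer adds 100 mM NaCl, 10 mM MgCl2. Nonspecific binding: 1 µM CGS 15943 (A2A) or 1 µM DPCPX (A1). Filtration, scintillation counting; IC50 converted to Ki via Cheng-Prusoff.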

Assay [2] deals with human CB-1 cannabinoid receptor (Homo sapiens (Human), UniProt P21554). Nature of the assay: CB-1 receptor radioligand binding assay, [3H]CP 55940, transfected CHO cell membranes. Conditions: 0.5 nM [3H]CP 55940, CHO cell membranes, 120 min at 37° C. The protocol: Nonspecific binding is determined in the presence of 10 µM WIN 55212-2.
Following incubation, the samples are filtered rapidly under vacuum through glass fiber filters (GF/B, Packard) presoaked with 0.3% PEI and rinsed several times with an ice-cold buffer containing 50 mM Tris-HCl (pH 7.4) and 0.5% BSA using a 96-sample cell harvester (Unifilter, Packard). The filters are dried then counted for radioactivity in a scintillation counter (Topcount, Packard) using a scintillation cocktail (Microscint 0, Packard).
The standard reference compound is CP 55940 which is tested in each experiment at several concentrations to obtain a competition curve from which its IC50 is calculated.

In another assay the target is human CB1 receptor (Homo sapiens (Human), UniProt P21554). Kind of assay: CB1 receptor antagonism, agonist-induced cAMP modulation (HTRF) in transfected CHO cells. In kind it is cell-based. Conditions: read-out: Antag IC50. The protocol:
Receptor antagonism: Evaluation of the antagonist activity of compounds at the human CB1 receptor expressed in transfected CHO cells, determined by measuring their effects on agonist-induced cAMP modulation using the HTRF detection method.
Thereafter, the reference agonist CP 55940 and the adenylyl cyclase activator NKH 477 are added at respective final concentrations of 3 nM and 3 µM.
For basal control measurements, CP 55940 is omitted from the wells containing 3 µM AM 281.
Following 20 min incubation at 37° C., the cells are lysed and the fluorescence acceptor (D2-labeled cAMP) and fluorescence donor (anti-cAMP antibody labeled with europium cryptate) are added.
After 60 min at room temperature, the fluorescence transfer is measured at λex=337 nm and λem=620 and 665 nm using a microplate reader (Rubystar, BMG). The cAMP concentration is determined by dividing the signal measured at 665 nm by that measured at 620 nm (ratio).
The standard reference antagonist is AM 281, which is tested in each experiment at several concentrations to generate a concentration-response curve from which its IC50 value is calculated.
A general note: TR-FRET usually uses a lanthanide donor and a delayed reading to cut background.

The target in assay [3] is human adenosine A1 receptor (Homo sapiens (Human), UniProt P30542). Kind of assay: Adenosine receptor inhibition binding assay, [3H]DPCPX, A1 receptor membranes. The conditions noted are these: 1 nM [3H]DPCPX, 25° C., 1 h, Ki from IC50 by Cheng-Prusoff. The essentials: as §1
Chain of human adenosine A1 receptor (P30542 whole entry): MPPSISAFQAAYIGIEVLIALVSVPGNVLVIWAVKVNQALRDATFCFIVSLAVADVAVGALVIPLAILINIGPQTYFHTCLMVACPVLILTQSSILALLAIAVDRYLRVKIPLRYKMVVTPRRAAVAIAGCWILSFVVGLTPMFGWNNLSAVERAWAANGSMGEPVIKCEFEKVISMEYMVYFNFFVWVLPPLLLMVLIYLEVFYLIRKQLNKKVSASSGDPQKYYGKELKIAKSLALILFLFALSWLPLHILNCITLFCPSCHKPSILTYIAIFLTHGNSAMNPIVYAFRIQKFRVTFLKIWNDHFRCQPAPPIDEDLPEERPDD

Chain of human adenosine A2A receptor (P29274 whole entry): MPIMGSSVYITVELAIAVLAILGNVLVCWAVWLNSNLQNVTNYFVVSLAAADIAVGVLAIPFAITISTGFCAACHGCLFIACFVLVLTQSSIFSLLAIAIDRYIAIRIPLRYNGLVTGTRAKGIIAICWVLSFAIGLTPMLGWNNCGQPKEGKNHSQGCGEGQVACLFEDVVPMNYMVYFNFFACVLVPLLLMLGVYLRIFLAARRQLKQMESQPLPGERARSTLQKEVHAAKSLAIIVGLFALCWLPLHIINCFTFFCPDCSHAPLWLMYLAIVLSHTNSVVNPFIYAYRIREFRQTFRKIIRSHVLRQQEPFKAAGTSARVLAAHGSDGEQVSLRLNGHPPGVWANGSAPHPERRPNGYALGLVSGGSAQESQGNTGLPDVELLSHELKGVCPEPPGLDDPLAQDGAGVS
Chain of human CB1 receptor (P21554 whole entry): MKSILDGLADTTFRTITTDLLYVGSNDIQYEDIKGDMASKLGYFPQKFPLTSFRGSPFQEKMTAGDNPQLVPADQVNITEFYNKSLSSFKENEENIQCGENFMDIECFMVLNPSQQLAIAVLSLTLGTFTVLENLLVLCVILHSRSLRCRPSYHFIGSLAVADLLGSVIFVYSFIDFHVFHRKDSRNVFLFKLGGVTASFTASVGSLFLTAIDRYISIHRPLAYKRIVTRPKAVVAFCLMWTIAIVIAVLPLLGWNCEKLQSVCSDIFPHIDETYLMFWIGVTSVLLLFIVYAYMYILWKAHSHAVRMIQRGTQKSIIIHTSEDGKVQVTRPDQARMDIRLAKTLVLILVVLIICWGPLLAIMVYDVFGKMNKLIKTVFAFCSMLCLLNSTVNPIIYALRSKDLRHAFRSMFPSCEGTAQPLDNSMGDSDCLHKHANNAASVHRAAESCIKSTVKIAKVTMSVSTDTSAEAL
Chain of human CB-1 cannabinoid receptor (P21554 whole entry): as above

With `Cc1cc(-c2c(-c3ccccc3)nc(N)n3c(=O)n(Cc4cc(C)on4)nc23)cc(C)n1` [Example 1-14, 5-amino-8-(2,6-dimethyl-4-pyridyl)-2-[(5-methylisoxazol-3-yl)methyl]-7-phenyl-[1,2,4]triazolo[4,3-c]pyrimidin-3-one], the “A2A pKi” value in assay [1] stood at 9.2. The compound also had a Ki in assay [2] of 50.5 µM. In addition, at human CB1 receptor, the IC50 amounted to 29.2 µM. Besides, the “A1 pKi” value in assay [3] turned out to be 6.6.

On to `Cc1cc(-c2c(-c3ccccc3)nc(N)n3c(=O)n(Cc4ncoc4C)nc23)cc(C)n1` [Example 1-22, 5-amino-8-(2,6-dimethyl-4-pyridyl)-2-[(5-methyloxazol-4-yl)methyl]-7-phenyl-[1,2,4]triazolo[4,3-c]pyrimidin-3-one], for which the “A2A pKi” value in assay [1] was determined as 10.1. In assay [2], this compound yielded a Ki of 29.6 µM. In addition, the IC50 on human CB1 receptor was greater than 100 µM. The “A1 pKi” value in assay [3] is on record as 7.4.

As to `Cc1cc(-c2c(-c3ccc(F)cc3)nc(N)n3c(=O)n(Cc4ncoc4C)nc23)cc(C)n1` [Example 1-31, 5-amino-8-(2,6-dimethyl-4-pyridyl)-7-(4-fluorophenyl)-2-[(5-methyloxazol-4-yl)methyl]-[1,2,4]triazolo[4,3-c]pyrimidin-3-one], the “A2A pKi” value in assay [1] was 9.6. The compound also showed a Ki in assay [2] of 26.1 µM. For the same compound, on human CB1 receptor, the IC50 came to 12.1 µM. In addition, the “A1 pKi” value in assay [3] came out at 7.0.

`Cc1cc(-c2c(-c3ccccc3)nc(N)n3c(=O)n(Cc4cc(C)on4)nc23)cc(CO)n1` [Example 1-43, 5-amino-8-[2-(hydroxymethyl)-6-methyl-4-pyridyl]-2-[(5-methylisoxazol-3-yl)methyl]-7-phenyl-[1,2,4]triazolo[4,3-c]pyrimidin-3-one]: the “A2A pKi” value in assay [1] turned out to be 9.1. Moreover, in assay [2], the Ki was determined as 86.9 µM. Further, at human CB1 receptor, the IC50 was greater than 100 µM. In assay [3], the “A1 pKi” value worked out at 6.7.

`Cc1cc(-c2c(-c3ccc(F)cc3)nc(N)n3c(=O)n(Cc4nccn4C)nc23)cc(CO)n1` [Example 1-50, 5-amino-7-(4-fluorophenyl)-8-[2-(hydroxymethyl)-6-methyl-4-pyridyl]-2-[(1-methylimidazol-2-yl)methyl]-[1,2,4]triazolo[4,3-c]pyrimidin-3-one]: in assay [1], the “A2A pKi” value was 9.5. In assay [2], this compound showed a Ki of 86.1 µM. Moreover, on human CB1 receptor, the IC50 was greater than 100 µM. Moreover, the “A1 pKi” value in assay [3] is listed as 6.5.

As to `Cc1cc(-c2c(-c3ccc(F)cc3)nc(N)n3c(=O)n(Cc4ncoc4C)nc23)cc(CO)n1` [Example 1-51, 5-amino-7-(4-fluorophenyl)-8-[2-(hydroxymethyl)-6-methyl-4-pyridyl]-2-[(5-methyloxazol-4-yl)methyl]-[1,2,4]triazolo[4,3-c]pyrimidin-3-one], the “A2A pKi” value in assay [1] is given as 9.4. In addition, in assay [2], the Ki is 80.3 µM. Also, the IC50 on human CB1 receptor was greater than 100 µM. Also, the “A1 pKi” value in assay [3] is reported as 6.4.

Turning to `COc1cc(-c2c(-c3ccccc3)nc(N)n3c(=O)n(Cc4ncoc4C)nc23)cc(CO)n1` [Example 1-60, 5-amino-8-[2-(hydroxymethyl)-6-methoxy-4-pyridyl]-2-[(5-methyloxazol-4-yl)methyl]-7-phenyl-[1,2,4]triazolo[4,3-c]pyrimidin-3-one], in assay [1], the “A2A pKi” value is 9.9. The compound also yielded a Ki in assay [2] of 66.7 µM. Further, the IC50 on human CB1 receptor is greater than 100 µM. Moreover, the “A1 pKi” value in assay [3] came to 6.8.

As to `COc1cc(-c2c(-c3ccc(F)cc3)nc(N)n3c(=O)n(Cc4ncoc4C)nc23)cc(CO)n1` [Example 1-64, 5-amino-7-(4-fluorophenyl)-8-[2-(hydroxymethyl)-6-methoxy-4-pyridyl]-2-[(5-methyloxazol-4-yl)methyl]-[1,2,4]triazolo[4,3-c]pyrimidin-3-one], the “A2A pKi” value in assay [1] is given as 9.6. Also, in assay [2], the Ki came to 40.8 µM. Further, the IC50 on human CB1 receptor was greater than 100 µM. Besides, the “A1 pKi” value in assay [3] is 6.5.

On to `Cc1cc(-c2c(-c3ccccc3)nc(N)n3c(=O)n(C[C@H]4CC(F)(F)CN4C)nc23)cc(C)n1` [Example 2-14, 5-amino-2-[[(2R)-4,4-difluoro-1-methyl-pyrrolidin-2-yl]methyl]-8-(2,6-dimethyl-4-pyridyl)-7-phenyl-[1,2,4]triazolo[4,3-c]pyrimidin-3-one], for which the Ki in assay [1] (read-out: A2A pKi (converted)) was 3.16 nM; in assay [2] it was 36.4 µM; in assay [3] (read-out: A1 pKi (converted)) it was 100 nM. Moreover, the IC50 at human CB1 receptor was found to be 35.8 µM.

Turning to `Nc1nc(-c2ccccc2)c(-c2cc(Cl)nc(CO)c2)c2nn(C[C@H]3CCCO3)c(=O)n12` [Example 2-32, 5-amino-8-[2-chloro-6-(hydroxymethyl)-4-pyridyl]-7-phenyl-2-[[(2R)-tetrahydrofuran-2-yl]methyl]-[1,2,4]triazolo[4,3-c]pyrimidin-3-one], the “A2A pKi” value in assay [1] is 9.6. Also, the IC50 at human CB1 receptor is greater than 100 µM. For the same compound, in assay [3], the “A1 pKi” value is reported as 6.6.

For the compound `COc1cc(-c2c(-c3ccccc3)nc(N)n3c(=O)n(C[C@H]4CCCO4)nc23)cc(CO)n1` [Example 2-35, 5-amino-8-[2-(hydroxymethyl)-6-methoxy-4-pyridyl]-7-phenyl-2-[[(2R)-tetrahydrofuran-2-yl]methyl]-[1,2,4]triazolo[4,3-c]pyrimidin-3-one], the “A2A pKi” value in assay [1] is 9.2. For the same compound, the IC50 on human CB1 receptor was greater than 100 µM. The “A1 pKi” value in assay [3] is on record as 5.9.

With `Nc1nc(-c2ccccc2)c(-c2cc(CO)nc(C(F)(F)F)c2)c2nn(C[C@H]3CCCO3)c(=O)n12` [Example 2-38, 5-amino-8-[2-(hydroxymethyl)-6-(trifluoromethyl)-4-pyridyl]-7-phenyl-2-[[(2R)-tetrahydrofuran-2-yl]methyl]-[1,2,4]triazolo[4,3-c]pyrimidin-3-one], the “A2A pKi” value in assay [1] is recorded as 8.9. In addition, at human CB1 receptor, the IC50 was greater than 100 µM. For the same compound, in assay [3], the “A1 pKi” value stood at 6.3.

As for `Cc1cc(-c2c(-c3ccccc3)nc(N)n3c(=O)n(CCN4CCCC4c4cccs4)nc23)cc(C)n1` (centres unmarked) [Example 3-1, 5-amino-8-(2,6-dimethyl-4-pyridyl)-7-phenyl-2-[2-[2-(2-thienyl)pyrrolidin-1-yl]ethyl]-[1,2,4]triazolo[4,3-c]pyrimidin-3-one], the “A2A pKi” value in assay [1] was 8.9. This compound also gave a Ki in assay [2] of 29.2 µM. Besides, at human CB1 receptor, the half-inhibitory concentration (IC50) was found to be 10.1 µM. In addition, in assay [3], the “A1 pKi” value came to 7.6.

Turning to `Cc1cc(-c2c(-c3ccccc3)nc(N)n3c(=O)n(CC4CCCN4Cc4ccccc4CN)nc23)cc(C)n1` (centres unmarked) [Example 3-4, 5-amino-2-[[1-[[2-(aminomethyl)phenyl]methyl]pyrrolidin-2-yl]methyl]-8-(2,6-dimethyl-4-pyridyl)-7-phenyl-[1,2,4]triazolo[4,3-c]pyrimidin-3-one], the “A2A pKi” value in assay [1] was found to be 8.4. Also, the Ki in assay [2] was determined as 76.4 µM. Further, the half-maximal inhibitory concentration (IC50) on human CB1 receptor was greater than 100 µM. Moreover, in assay [3], the “A1 pKi” value was 6.3.
